The text below walks through data of ChEMBL document CHEMBL4840364, “Penicisteckins A-F, Isochroman-Derived Atropisomeric Dimers from Penicillium steckii HNNU-5B18” (J Nat Prod, 2021).

For assay [1], the system named is HGC-27. Briefly: Cytotoxicity against human HGC-27 cells assessed as inhibition of cell viability measured for 48 hrs by CCK colorimetric assay. It counts as functional, cell-based. As to conditions: HGC-27, 48 h.
Assay [2] deals with SH-SY5Y. Briefly: Cytotoxicity against human SH-SY5Y cells assessed as inhibition of cell viability measured for 48 hrs by CCK colorimetric assay. Type of assay: functional, cell-based.
In assay [3] the test system is C6. Briefly: Cytotoxicity against rat C6 cells assessed as inhibition of cell viability measured for 48 hrs by CCK colorimetric assay. It counts as functional, cell-based. The note with it: C6, 48 h.
The test system of assay [4] is Staphylococcus aureus. Briefly: Antibacterial activity against Staphylococcus aureus ATCC 29213 assessed as bacterial growth inhibition incubated for 20 hrs by broth micro dilution method. Type of assay: functional.
Assay [5] deals with Staphylococcus aureus. Briefly: Antibacterial activity against methicillin-resistant Staphylococcus aureus assessed as bacterial growth inhibition incubated for 20 hrs by broth micro dilution method. It counts as functional.

≈ marks a conversion by molar mass, not a printed value.

The term IC50 denotes the concentration that gives 50% inhibition. For `COc1cc(O)c(C)c2c1CO[C@@H](C)C2`, the IC50 in assay [1], in assay [2] and in assay [3] was less than 10 µM each time.

A word on the MIC: it is the least concentration at which growth counts as inhibited. `COC1=CC(=O)C(C)=C(C[C@@H](C)O)C1=O`: the IC50 in assay [1], in assay [2] and in assay [3] was less than 10 µM in each case. In addition, the MIC in assay [4] came to 2 mg/L (≈ 9.51 µM); in assay [5], 8 mg/L (≈ 38.1 µM).

`COc1c2c(c(C)c(O)c1-c1c(O)c(C)c3c(c1OC)CO[C@@H](C)C3)C[C@H](C)OC2` (atropisomer aR): the IC50 in assay [1], in assay [2] and in assay [3] was less than 10 µM throughout.

In the case of `COc1cc(O)c(-c2c(O)c(C)c3c(c2OC)CO[C@@H](C)C3)c2c1CO[C@@H](C)C2` (atropisomer aS), the IC50 in assay [1], in assay [2] and in assay [3] was less than 10 µM each time.

Turning to `COC1=C(c2c(O)cc(OC)c3c2C[C@H](C)OC3)C(=O)C(C)=C(C[C@@H](C)O)C1=O` (atropisomer aS), the IC50 in assay [1], in assay [2] and in assay [3] was less than 10 µM in each case.
